For seven molecules, IC50 results are on record in US20260217729A1, “HALOGEN-S[…] AMIDE DERIVATIVE, PREPARATION METHOD THEREFOR, AND USE THEREOF” (HANGZHOU ADCORIS BIOPHARMA CO., LTD, priority 2023, published 2026).

Holding throughout (format): cell-based
In test [1] the test system is Human esophageal cancer cells OE33. Put plainly: Tumor cell growth inhibitory activity (CCK-8), OE33. The following applies: 72 h incubation, read-out: IC50 for inhibiting the growth of tumor cells, OE33. As for the experimental part:
(§1) Human esophageal cancer cells OE33, human breast cancer cells MDA-MB-231, human gastric cancer cells NCI-N87, human lung cancer cells NCI-H1975, human esophageal cancer cells TE12, human breast cancer cells SK-BR-3, etc., were cultured in RPMI1640 (Cellmax) supplemented with 10% fetal bovine serum (Cellmax). Tumor cells in the exponential growth phase were diluted to a concentration of 1×10^5 cells/mL with culture medium and added to 96-well cell culture plates at 100 μL per well, then returned and incubated overnight in a 37° C. incubator with 5% CO2. On the following day, the compounds were diluted to concentrations of 10000 nM, 2000 nM, 400 nM, 80 nM, 16 nM, 3.2 nM, 0.64 nM, and 0.13 nM with culture medium, and the diluted compounds were added to the 96-well cell culture plates at 2 μL per well, with three replicate wells for each concentration. Negative control and blank control groups without addition of compounds were added with 2 μL of the dilution liquid per well. After the addition of the compounds, the plates were returned to the 37° C. incubator with 5% CO2 to continue the incubation for 72 h. After the incubation, the cell culture plates were removed, and the culture medium in the plates was aspirated using a pipette. Then, 100 μL of culture medium containing 10% CCK-8 was added to each well, and the plates were incubated at 37° C. for 3 h. After the incubation, the plates were removed, kept in the dark, and placed in an ELISA plate. Absorbance was measured at 630 nm as the reference wavelength and 450 nm as the test wavelength. Based on the absorbance values, the IC50 values (Table 1) were calculated using the four-parameter logistic regression method in GraphPad.

Test [2] deals with human breast cancer cells MDA-MB-231. Put plainly: Tumor cell growth inhibitory activity (CCK-8), MDA-MB-231. The following applies: MDA-MB-231 cells, 72 h incubation, read-out: IC50 for inhibiting the growth of tumor cells, MDA-MB-231. As for the experimental part: as §1
Test [3] has as its system human gastric cancer cells NCI-N87. Put plainly: Tumor cell growth inhibitory activity (CCK-8), NCI-N87. Conditions: 72 h incubation, read-out: IC50 for inhibiting the growth of tumor cells, NCI-N87. As for the experimental part:
as §1

The subject of test [4] is human lung cancer cells NCI-H1975. Kind of test: Tumor cell growth inhibitory activity (CCK-8), NCI-H1975. The following applies: 72 h incubation, read-out: IC50 for inhibiting the growth of tumor cells, NCI-H1975. The protocol: as §1
For test [5], the system named is human esophageal cancer cells TE12. Kind of test: Tumor cell growth inhibitory activity (CCK-8), TE12. The following applies: 72 h incubation, read-out: IC50 for inhibiting the growth of tumor cells, TE12. As for the experimental part: as §1
The test system of test [6] is human breast cancer cells SK-BR-3. Put plainly: Tumor cell growth inhibitory activity (CCK-8), SK-BR-3. Conditions: SK-BR-3 cells, 72 h incubation, read-out: IC50 for inhibiting the growth of tumor cells, SK-BR-3. As for the experimental part: as §1

Structures are written as SMILES. pIC50: −log10 of the molar value. Where two headings read alike, the source gives them in different places. Where only a bound is given, the exact number is not on record here.

Usually pIC50 stands for the IC50 on a negative log10 scale, so that one unit is a factor of ten.

As for `CC[C@@]1(O)C(=O)OCc2c1cc1n(c2=O)Cc2c-1nc1cc(F)c(C)c3c1c2[C@@H](NC(=O)[C@@H]1CC(F)(F)CN1)CC3` [Compound 4, 4′,4′-difluoroprolyl exatecan], the negative logarithm of the IC50 (pIC50) in test [1] (Homo sapiens) is 9.12; in test [2] (Homo sapiens) it was 6.70; in test [3] (Homo sapiens), 10.00; in test [4] (Homo sapiens) it was 7.39; in test [5] (Homo sapiens), 7.95; in test [6] (Homo sapiens) it was 9.46.

Turning to `CC[C@@]1(O)C(=O)OCc2c1cc1n(c2=O)Cc2c-1nc1cc(F)c(C)c3c1c2[C@@H](NC(=O)CNCC(F)(F)F)CC3` [Compound 2, N—(N-(2′-trifluoroethyl)aminoacetyl)exatecan], the pIC50 is 8.96 in test [1]; 6.62 in test [2]; 9.35 in test [3]; 7.33 in test [4]; 7.90 in test [5]; 9.00 in test [6].

For the molecule `CC[C@@]1(O)C(=O)OCc2c1cc1n(c2=O)Cc2c-1nc1cc(F)c(C)c3c1c2[C@@H](NC(=O)C(N)C(F)(F)F)CC3` (stereo partly drawn) [Compound 3, 2′-amino-3′,3′,3′-trifluoropropanoyl exatecan], the pIC50 in test [1] (Homo sapiens) is 8.25; in test [2] (Homo sapiens), 6.58; in test [3] (Homo sapiens) it was 8.76; in test [4] (Homo sapiens), 7.25; in test [5] (Homo sapiens), 7.68; in test [6] (Homo sapiens) it was 8.52.

As to `CC[C@@]1(O)C(=O)OCc2c1cc1n(c2=O)Cc2c-1nc1cc(F)c(C)c3c1c2[C@@H](NC(=O)C(F)C(N)=O)CC3` (stereo partly drawn) [Compound 1, N-(2′-fluoro-3′-amino-3′-oxo-propanoyl) exatecan], the pIC50 was 7.42 in test [1]; < 6.00 in test [2]; 7.92 in test [3]; 6.22 in test [4]; 6.47 in test [5]; 7.75 in test [6].

In the case of `CC[C@@]1(O)C(=O)OCc2c1cc1n(c2=O)Cc2c-1nc1cc(F)c(C)c3c1c2[C@@H](NC(=O)CO)CC3` [Dxd, reference compound], the negative-log IC50 (pIC50) was 8.18 in test [1] (Homo sapiens); 6.68 in test [2] (Homo sapiens); 8.87 in test [3] (Homo sapiens); 7.13 in test [4] (Homo sapiens); 7.67 in test [5] (Homo sapiens); 8.35 in test [6] (Homo sapiens).

As to `CC[C@@]1(O)C(=O)OCc2c1cc1n(c2=O)Cc2c-1nc1cc(F)c(C)c3c1c2[C@H](NC(=O)C(C)(F)F)CC3` [Compound 6, 2′,2′-difluoropropionyl exatecan], the pIC50 in test [1] (Homo sapiens) is 9.21; in test [2] (Homo sapiens) it was 6.84; in test [3] (Homo sapiens), 9.78; in test [4] (Homo sapiens), 7.41; in test [5] (Homo sapiens) it was 8.12; in test [6] (Homo sapiens) it was 9.49.

For the molecule `CC[C@@]1(O)C(=O)OCc2c1cc1n(c2=O)Cc2c-1nc1cc(F)c(C)c3c1c2[C@@H](NC(=O)C(F)F)CC3` [Compound 5, 2′,2′-difluoroacetyl exatecan], the negative-log IC50 (pIC50) in test [1] (Homo sapiens) is 8.36; in test [2] (Homo sapiens), 6.39; in test [3] (Homo sapiens) it was 9.06; in test [4] (Homo sapiens), 7.86; in test [5] (Homo sapiens) it was 7.73; in test [6] (Homo sapiens) it was 8.69.
